US20210223237A1, “COMPOSITIONS AND METHODS FOR STUDYING DRUG METABOLISM” (Boehringer Ingelheim International GmbH, priority 2020, published 2021)
Values joined by “and” are separate entries in the source; they are usually repeats but may differ in a detail not shown here. Equal entries are not always repeated. Where two headings read alike, the source gives them in different places.

What was measured:
CYP2C8 = target: T1, CYP2C8 (Homo sapiens, UniProt P10632)
T1 sequence (P10632 1-490): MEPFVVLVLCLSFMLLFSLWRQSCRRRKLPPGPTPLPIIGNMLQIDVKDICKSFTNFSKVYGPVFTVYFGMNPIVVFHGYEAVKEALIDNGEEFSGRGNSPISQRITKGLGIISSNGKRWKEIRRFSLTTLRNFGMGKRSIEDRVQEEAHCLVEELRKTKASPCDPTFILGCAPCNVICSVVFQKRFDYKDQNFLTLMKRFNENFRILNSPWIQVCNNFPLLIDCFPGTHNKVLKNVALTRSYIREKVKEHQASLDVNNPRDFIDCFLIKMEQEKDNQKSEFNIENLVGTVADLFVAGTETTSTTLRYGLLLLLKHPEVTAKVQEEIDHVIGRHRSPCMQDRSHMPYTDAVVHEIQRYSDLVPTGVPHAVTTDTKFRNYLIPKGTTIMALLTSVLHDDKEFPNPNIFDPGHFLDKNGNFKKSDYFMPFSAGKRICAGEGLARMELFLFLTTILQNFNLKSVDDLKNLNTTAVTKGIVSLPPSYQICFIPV

[1] = Non-specific binding of compounds to magnetizable beads alone; settings: 30 min incubation of beads (5.3×10^9 beads), bioanalysis of supernatant
[2] = in vivo; cited from earlier work
[3] = HLM 0.005 mg/ml
in vitro [4] = settings: human, microsomes
in vitro [5] = settings: human, pH 7.4
[6] = Microsomal binding (fu,mic) using HLM-beads; settings: HLM-beads; HLM 1.0 mg/ml; compound 1.0 μM; (SD)
in vitro [7] = settings: human, microsomes; remark: listed apart in the source
CYP3A = assay: CYP3A-mediated midazolam 1′hydroxylation kinetics in HLM suspensions vs HLM-beads; parameters: Km, times higher with HLM-beads than with HLM suspensions: unit not given beside the values; settings: for microsomal CLint / Km: human; for microsomal CLint: pH 7.4; for Km: pH 7.4, probe midazolam (1′-hydroxylation)
[8] = human, microsomes, 6 h, 1 μM
[9] = cited from earlier work
UGT1A1 [10] = target: T2, UGT1A1 (Homo sapiens, UniProt P22309); assay: in vitro; settings: pH 7.8
T2 sequence (P22309 26-533): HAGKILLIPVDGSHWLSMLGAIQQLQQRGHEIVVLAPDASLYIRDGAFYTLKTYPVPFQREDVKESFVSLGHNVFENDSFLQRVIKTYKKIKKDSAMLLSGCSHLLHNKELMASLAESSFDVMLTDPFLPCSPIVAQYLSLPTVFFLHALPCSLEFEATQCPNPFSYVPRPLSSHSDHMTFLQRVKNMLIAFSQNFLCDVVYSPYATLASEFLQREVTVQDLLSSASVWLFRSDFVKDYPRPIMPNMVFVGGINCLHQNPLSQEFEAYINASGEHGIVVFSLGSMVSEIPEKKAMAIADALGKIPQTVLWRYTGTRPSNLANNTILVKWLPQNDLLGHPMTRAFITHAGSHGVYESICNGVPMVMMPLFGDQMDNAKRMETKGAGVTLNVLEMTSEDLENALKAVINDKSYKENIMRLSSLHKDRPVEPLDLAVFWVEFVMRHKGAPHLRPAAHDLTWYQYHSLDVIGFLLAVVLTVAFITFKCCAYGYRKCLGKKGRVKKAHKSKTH

UGT1A1 [11] = target: T2, UGT1A1; assay: UGT1A1-catalyzed E2 3-glucuronidation kinetics in HLM suspensions vs HLM-beads
not read = substrate: C[C@]12CC[C@@H]3c4ccc(O)cc4CC[C@H]3[C@@H]1CC[C@@H]2O; assay: not read; settings: other: HLM suspensions; allosteric sigmoidal modeling; pH 7.8; 37.0 °C
[12] = substrate: CC(C)c1cccc(C(C)C)c1O
[13] = human liver microsomes (suspension)

CCN(CC)Cc1cc(Nc2ccnc3cc(Cl)ccc23)ccc1O [Amodiaquine, amodiaquine]
Km, times higher with HLM-beads than with HLM suspensions (CYP2C8): approximately 2 ×

Cc1ncc2n1-c1ccc(Cl)cc1C(c1ccccc1F)=NC2 [Midazolam, midazolam]
non-specific binding to the beads [1]: not observed | blood clearance reported in the literature [2]: 8.59 mL/min/kg | depletion of parent midazolam ([3]; HLM suspensions, no new HLM added, up to 160 min): No perceptible depletion | metabolism of midazolam on exchange of used HLM-beads with fresh HLM-beads ([3]; HLM-bead relay every 20 minutes): continued metabolism | fraction unbound at 5 min, 1 μM (in vitro [4]): 0.76 | CLhep predicted at 1 μM (in vitro [5]): 9.47 mL/min/kg | microsomal CLint at 1 μM (in vitro [5]): 842 µL/min/mg | fu,mic [6]: 0.53 (0.02) | fraction unbound at 6 h, 1 μM (in vitro [7]): 0.98 | Vmax (CYP3A; HLM suspensions): 2002 ± 66 pmol/min/mg | Vmax (CYP3A; HLM-beads): 4350 ± 249^sig pmol/min/mg | Km, times higher with HLM-beads than with HLM suspensions (CYP3A; HLM-beads vs HLM suspensions): ~3 × | microsomal CLint (CYP3A; [13]): 2830 µL/min/mg | Km (CYP3A; human liver microsomes bound to beads (HLM-beads)): 2.04 ± 0.23 µM | Km (CYP3A; human liver microsomes in suspension (no beads)): 0.612 ± 0.086 µM | microsomal CLint (CYP3A): 2130 µL/min/mg

CC(=O)CC(c1ccccc1)c1c(O)c2ccccc2oc1=O (centres unmarked) [Warfarin, warfarin]
fu,mic [8]: 0.86 (0.08) | pKa [9]: 5.0 | fraction unbound at 6 h, 1 μM (in vitro [7]): 0.94

C[C@]12CC[C@@H]3c4ccc(O)cc4CC[C@H]3[C@@H]1CC[C@@H]2O [E2, estradiol]
microsomal CLint (UGT1A1 [10]; [13]): 59 µL/min/mg | microsomal CLint (UGT1A1 [10]): 88 µL/min/mg | V/K or CLint, fold higher in HLM-beads than in HLM suspensions (UGT1A1 [11]): higher | Vmax, HLM-beads compared with HLM suspensions (UGT1A1 [11]): comparable

B1: UGT1A1 (Homo sapiens) (protein)
chain: HAGKILLIPVDGSHWLSMLGAIQQLQQRGHEIVVLAPDASLYIRDGAFYTLKTYPVPFQREDVKESFVSLGHNVFENDSFLQRVIKTYKKIKKDSAMLLSGCSHLLHNKELMASLAESSFDVMLTDPFLPCSPIVAQYLSLPTVFFLHALPCSLEFEATQCPNPFSYVPRPLSSHSDHMTFLQRVKNMLIAFSQNFLCDVVYSPYATLASEFLQREVTVQDLLSSASVWLFRSDFVKDYPRPIMPNMVFVGGINCLHQNPLSQEFEAYINASGEHGIVVFSLGSMVSEIPEKKAMAIADALGKIPQTVLWRYTGTRPSNLANNTILVKWLPQNDLLGHPMTRAFITHAGSHGVYESICNGVPMVMMPLFGDQMDNAKRMETKGAGVTLNVLEMTSEDLENALKAVINDKSYKENIMRLSSLHKDRPVEPLDLAVFWVEFVMRHKGAPHLRPAAHDLTWYQYHSLDVIGFLLAVVLTVAFITFKCCAYGYRKCLGKKGRVKKAHKSKTH
K0.5 (not read): 13 ± 1 µM

B2: UGT1A9 (Homo sapiens) (protein)
chain: GKLLVVPMDGSHWFTMRSVVEKLILRGHEVVVVMPEVSWQLGRSLNCTVKTYSTSYTLEDLDREFKAFAHAQWKAQVRSIYSLLMGSYNDIFDLFFSNCRSLFKDKKLVEYLKESSFDAVFLDPFDNCGLIVAKYFSLPSVVFARGILCHYLEEGAQCPAPLSYVPRILLGFSDAMTFKERVRNHIMHLEEHLLCHRFFKNALEIASEILQTPVTEYDLYSHTSIWLLRTDFVLDYPKPVMPNMIFIGGINCHQGKPLPMEFEAYINASGEHGIVVFSLGSMVSEIPEKKAMAIADALGKIPQTVLWRYTGTRPSNLANNTILVKWLPQNDLLGHPMTRAFITHAGSHGVYESICNGVPMVMMPLFGDQMDNAKRMETKGAGVTLNVLEMTSEDLENALKAVINDKSYKENIMRLSSLHKDRPVEPLDLAVFWVEFVMRHKGAPHLRPAAHDLTWYQYHSLDVIGFLLAVVLTVAFITFKCCAYGYRKCLGKKGRVKKAHKSKTH
K0.5 [12]: 30 ± 4 μM and 13 ± 2^sig μM
